Test results taken from patent US20170050957A1, “4-AMINO-6-(HETEROCYCLIC)PICOLINATES AND 6-AMINO-2-(HETEROCYCLIC)PYRIMIDINE-4-CARBOXYLATES AND THEIR USE AS HERBICIDES” (Dow AgroSciences LLC, priority 2013, published 2017).
Like-named read-outs stand apart in the source and are kept apart here.

Key:
[1] = system: Key Broadleaf Weed and Crop Species; assay: Post-emergent Test II herbicidal activity (Table 15); format: in vivo; conditions: post-emergence, 336 h, 14 d; for pest or weed control at 35 g/ha: 35 g ai/ha; for pest or weed control at 70 g/ha: 70 g ai/ha; for pest or weed control at 140 g/ha: 140 g ai/ha
Procedure, shortened: (§1)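 Herbicidal effect scored as percent visual injury, 14 d after post-emergent application. Spray solutions contained acetone, DMSO, isopropyl alcohol, crop oil concentrate and surfactant, applied at 187 L/ha to young plants (1-2 true leaves).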

[2] = system: Key Grass and Sedge Weeds as well as Grass Crops; assay: Post-emergent Test II herbicidal activity (Table 16); format: in vivo; conditions: post-emergence, 336 h, 14 d; for pest or weed control at 35 g/ha: 35 g ai/ha; for pest or weed control at 70 g/ha: 70 g ai/ha; for pest or weed control at 140 g/ha: 140 g ai/ha
Procedure, shortened: as §1

[3] = Abutilon theophrasti, velvetleaf (Abutilon theophrasti), read-out: Visual Growth Reduction (%) 14 Days After Application, ABUTH
[4] = Amaranthus retroflexus, redroot pigweed (Amaranthus retroflexus), read-out: Visual Growth Reduction (%) 14 Days After Application, AMARE
[5] = Brassica napus, oilseed rape, canola (Brassica napus), read-out: Visual Growth Reduction (%) 14 Days After Application, BRSNN
[6] = Chenopodium album, lambsquarters (Chenopodium album), read-out: Visual Growth Reduction (%) 14 Days After Application, CHEAL
[7] = Euphorbia heterophylla, wild poinsettia (Euphorbia heterophylla), read-out: Visual Growth Reduction (%) 14 Days After Application, EPHHL
[8] = Helianthus annuus, sunflower (Helianthus annuus), read-out: Visual Growth Reduction (%) 14 Days After Application, HELAN
[9] = Cyperus esculentus, yellow nutsedge (Cyperus esculentus), read-out: Visual Growth Reduction (%) 14 Days After Application, CYPES
[10] = Echinochloa crus-galli, barnyardgrass (Echinochloa crus-galli), read-out: Visual Growth Reduction (%) 14 Days After Application, ECHCG
[11] = Oryza sativa, rice (Oryza sativa), read-out: Visual Growth Reduction (%) 14 Days After Application, ORYSA
[12] = Setaria faberi, giant foxtail (Setaria faberi), read-out: Visual Growth Reduction (%) 14 Days After Application, SETFA
[13] = Triticum aestivum, wheat, spring (Triticum aestivum), read-out: Visual Growth Reduction (%) 14 Days After Application, TRZAS
[14] = Zea mays, maize, corn (Zea mays), read-out: Visual Growth Reduction (%) 14 Days After Application, ZEAMX

SMILES | pest or weed control at 35 g/ha [1, 3] | pest or weed control at 70 g/ha [1, 3] | pest or weed control at 140 g/ha [1, 3] | pest or weed control at 35 g/ha [1, 4] | pest or weed control at 70 g/ha [1, 4] | pest or weed control at 140 g/ha [1, 4] | pest or weed control at 35 g/ha [1, 5] | pest or weed control at 70 g/ha [1, 5] | pest or weed control at 140 g/ha [1, 5] | pest or weed control at 35 g/ha [1, 6] | pest or weed control at 70 g/ha [1, 6] | pest or weed control at 140 g/ha [1, 6] | pest or weed control at 35 g/ha [1, 7] | pest or weed control at 70 g/ha [1, 7] | pest or weed control at 140 g/ha [1, 7] | pest or weed control at 35 g/ha [1, 8] | pest or weed control at 70 g/ha [1, 8] | pest or weed control at 140 g/ha [1, 8] | pest or weed control at 35 g/ha [2, 9] | pest or weed control at 70 g/ha [2, 9] | also measured
COC(=O)c1nc(-c2ccc(Cl)c3ccoc23)nc(N)c1OC [Compound 2.26] | 45 to 59% | 60 to 74% | 60 to 74% | 95 to 100% | 95 to 100% | 95 to 100% | 45 to 59% | 60 to 74% | 60 to 74% | 95 to 100% | 95 to 100% | 95 to 100% | 45 to 59% | 60 to 74% | 75 to 84% | 75 to 84% | 95 to 100% | 95 to 100% | 0 to 29% | 0 to 29% | pest or weed control at 140 g/ha [2, 9]: 0 to 29%; pest or weed control at 35 g/ha [2, 10]: 0 to 29%; pest or weed control at 70 g/ha [2, 10]: 0 to 29%; pest or weed control at 140 g/ha [2, 10]: 0 to 29%; pest or weed control at 35 g/ha [2, 11]: 0 to 29%; pest or weed control at 70 g/ha [2, 11]: 0 to 29%; pest or weed control at 140 g/ha [2, 11]: 0 to 29%; pest or weed control at 35 g/ha [2, 12]: 0 to 29%; pest or weed control at 70 g/ha [2, 12]: 0 to 29%; pest or weed control at 140 g/ha [2, 12]: 0 to 29%; pest or weed control at 35 g/ha [2, 13]: 0 to 29%; pest or weed control at 70 g/ha [2, 13]: 0 to 29%; pest or weed control at 140 g/ha [2, 13]: 0 to 29%; pest or weed control at 35 g/ha [2, 14]: 0 to 29%; pest or weed control at 70 g/ha [2, 14]: 0 to 29%; pest or weed control at 140 g/ha [2, 14]: 0 to 29%; melting point: 178 °C
Nc1nc(-c2ccc(Cl)c3occc23)nc(C(=O)O)c1Cl [Compound 2.23] | 0 to 29% | 0 to 29% | 0 to 29% | 95 to 100% | 95 to 100% | 95 to 100% | 0 to 29% | 0 to 29% | 0 to 29% | 95 to 100% | 95 to 100% | 95 to 100% | 0 to 29% | 0 to 29% | 0 to 29% | 85 to 94% | 95 to 100% | 95 to 100% | 0 to 29% | 0 to 29% | pest or weed control at 140 g/ha [2, 9]: 0 to 29%; pest or weed control at 35 g/ha [2, 10]: 0 to 29%; pest or weed control at 70 g/ha [2, 10]: 0 to 29%; pest or weed control at 140 g/ha [2, 10]: 0 to 29%; pest or weed control at 35 g/ha [2, 11]: 0 to 29%; pest or weed control at 70 g/ha [2, 11]: 0 to 29%; pest or weed control at 140 g/ha [2, 11]: 0 to 29%; pest or weed control at 35 g/ha [2, 12]: 0 to 29%; pest or weed control at 70 g/ha [2, 12]: 0 to 29%; pest or weed control at 140 g/ha [2, 12]: 0 to 29%; pest or weed control at 35 g/ha [2, 13]: 0 to 29%; pest or weed control at 70 g/ha [2, 13]: 0 to 29%; pest or weed control at 140 g/ha [2, 13]: 0 to 29%; pest or weed control at 35 g/ha [2, 14]: 0 to 29%; pest or weed control at 70 g/ha [2, 14]: 0 to 29%; pest or weed control at 140 g/ha [2, 14]: 0 to 29%; melting point: 173 to 174.5 °C
